By Papp A→B is commonly meant how fast a substance crosses the layer from the apical side. Usually Papp B→A stands for the apparent permeability from the basolateral to the apical side of a cell layer. The Kd is the concentration at which binding is half-saturated. Broadly, the IC50 is the concentration at which inhibition is half-maximal.

The nature of series [1]: Caco-2 permeability assay. The conditions noted are these: human, Caco-2, pH 7.4. In general terms: Passage across Caco-2 layers is used to estimate intestinal permeability.
The target in series [2] is T1, galectin-3 (Homo sapiens, UniProt P17931). Briefly: GPN-induced galectin-3 accumulation (puncta) in JIMT-1 breast cancer cells. The class given is cell-based. Further details: In the intracellular assay, in contrast, only endogenous galectin was present; endogenous in cells; host or cells: JIMT-1 breast cancer cells. As to the method: The total number of galectin-3 puncta and nuclei in the microscopy images were quantified using the software ImageJ.
T1 sequence (P17931 whole entry): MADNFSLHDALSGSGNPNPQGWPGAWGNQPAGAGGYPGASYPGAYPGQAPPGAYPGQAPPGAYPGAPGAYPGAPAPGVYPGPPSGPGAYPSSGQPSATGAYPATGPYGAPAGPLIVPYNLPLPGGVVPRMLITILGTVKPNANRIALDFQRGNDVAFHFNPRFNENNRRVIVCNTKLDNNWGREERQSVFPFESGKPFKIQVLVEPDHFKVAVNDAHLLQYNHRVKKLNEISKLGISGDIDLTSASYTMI
Cells were seeded in multi-well plates with sterile glass coverslips placed in each well and allowed to adhere to the cell culture surface for at least 24 hours. Then the cells were pre-treated with the different galectin-3 inhibitors at different concentrations (or DMSO as control) for 15 minutes or 24 hours followed by addition of the lysosomal damaging peptide GPN[42] and incubated another 13 minutes, with the inhibitors still present. The 13-minute incubation with GPN and 15-minute pre-incubation with inhibitors were done in DMEM/Ham’s F12 medium with 15 mM HEPES buffer (without serum), whereas the 24-hour incubation with inhibitors were performed in fully supplemented DMEM/Ham’s F12 medium (as described under Cell culture).
After treatment with GPN, the cells were fixed in 3.7% (v/v) formaldehyde in phosphate-buffered saline (PBS) for 15 minutes, permeabilized and blocked using 1% (v/v) TWEEN 20 and 5% (w/v) BSA in PBS for 30 minutes, then incubated with primary and secondary antibodies for one hour each (washed with PBS in between). Primary and secondary antibodies for galectin-3 staining were a rat anti-mouse galectin-3 IgG antibody[50],[51] […] All antibodies were diluted in 0.05% TWEEN 20 and 5% BSA in PBS. […] The coverslips were mounted on glass slides using Mowiol® 4–88 and left at 8 °C overnight before further examination. For imaging of the cells, a LSM-510 confocal laser scanning microscope (Carl Zeiss Microscopy GmbH, Oberkochen, Germany), equipped with a Hamamatsu R6357 photomultiplier (Hamamatsu Photonics K.K., Hamamatsu, Japan), was used. […] Maximum intensity projections of each picture obtained were analyzed with ImageJ 1.47 v (Rasband, W.S., ImageJ, U. S. National Institutes of Health, Bethesda, Maryland, USA) to quantify the number of galectin-3 dots and the number of nuclei in each picture. The quantification of particles (i.e. galectin-3 puncta/nucleus) was carried out using batch processing in the software, where a single macro (including parameters such as image thresholds, particle size and circularity) was used for all images obtained from a single experiment, this to reduce user bias and time consumption.

The test system of the next series is MCF-7 cells. Description: MTT cell viability assay, MCF-7. The class given is cell-based. The conditions noted are these: MCF-7, 72 hours, 0.04–40 µM for 1 and 2, 0.04–20 µM for 3. As to the method:
(§1) The MTT (3-[4,5-dimethylthiazol-2-yl]−2,5-diphenyltetrazolium bromide) assays were performed as previously described. […] The cells were incubated for 24 hours before addition of galectin-3 inhibitors. The inhibitors were diluted in PBS from their respective stock solution in DMSO (see Galectin-3 inhibitors) and used at final concentrations ranging from 0.04 to 40 μM. DMSO was adjusted to make the final DMSO concentration 0.2% for all inhibitor concentrations, including the control sample (no inhibitor). After 72 hours of treatment, 20 μl of 5 mg/ml MTT solution (in PBS) was added to each well and incubation continued for 1 hour at 37 °C. Thereafter, the MTT containing medium was removed and 100 μl of DMSO was added per well and the plates swirled gently for 10 minutes to dissolve the cells and the purple formazan product precipitate. Absorbance was monitored at 540 nm using a Labsystems iEMS Reader MF (Labsystems Oy, Helsinki, Finland) and the software DeltaSoft II v.4.14 (Biometallics Inc., Princeton, NJ, USA).

For series [3], the target named is T1, galectin-3. Briefly: Fluorescence anisotropy (FA) competitive assay, affinity for galectin-3. The class given is binding. Further details: made in house; host or cells: E. coli BL21 Star (DE3). From the text:
A FA assay was used to determine the affinity of recombinant human galectin-3 and the three inhibitors in solution. The use of the FA assay for this purpose has previously been described in detail by Sörme et al.[49]. In short, increasing concentrations of galectins were first titered against a fixed concentration of the fluorescent saccharide probe 3,3′-dideoxy-3-[4-(fluorescein-5-yl-carbonylaminomethyl)-1H-1,2,3-triazol-1-yl]−3′-[4-(3-fluorophenyl)-1H-1,2,3-triazol-1-yl]-1,1′-sulfanediyl-di-β-D-galactopyranoside (4 nM) (described in Peterson et al.[28]), to obtain binding curves in which the anisotropy value increases from a value for probe free in solution (A0) to a value where all probe molecules are bound to galectin-3 (Amax). Binding curves were constructed for each test condition used in this study (i.e. different buffer, temperature and pH, see below) (Fig. S4). To establish the dissociation constant (Kd) values between the inhibitors and galectin-3, a competitive variant of the FA assay was utilized. In this study, increasing concentrations of the inhibitors were titered against fixed concentrations of galectin-3 and probe. By measuring the anisotropy values for the different inhibitor concentrations, together with the values for Amax and A0, the Kd values could be calculated according to the equations presented in Sörme et al.[49].
The experiments were either performed in PBS (pH 7.2), in 50 mM phosphate buffer with 100 mM NaCl (pH 6, 7, or 8), or in 50 mM acetate buffer with 100 mM NaCl (pH 5). All buffers were supplemented with 0.1 µM BSA (to not lose any protein due to absorbance to plate surfaces). For the experiments performed in PBS (pH 7.2), a concentration of 20 nM galectin-3 was used (at room temperature and 4 °C). For the experiments done in phosphate/acetate buffer, galectin-3 was used at concentrations of 400 nM (pH 5), 100 nM (pH 6), or 50 nM (pH 7 and 8).
The emitted light from the fluorescent saccharide probes was measured using a PheraStarFS plate reader and PHERAstar Mars version 2.10 R3 software (BMG, Offenburg, Germany). […] The anisotropy values for each data point were read in duplicate wells of 96-well plates (at a total volume of 140 µl) 30 minutes after the addition of all solutions (for equilibrium to arise).
For orientation: In fluorescence polarisation assays a small probe gives low polarisation when free and higher when bound to something large.

A further series deals with JIMT-1 cells. Description: MTT cell viability assay, JIMT-1. It counts as cell-based. The conditions noted are these: JIMT-1, 72 hours, 0.04–40 µM for 1 and 2, 0.04–20 µM for 3. As to the method: as §1
For a further series, the system named is HCC1937 cells. Description: MTT cell viability assay, HCC1937. It counts as cell-based. The note with it: HCC1937, 72 hours, 0.04–40 µM for 1 and 2, 0.04–20 µM for 3. As to the method:
as §1
For orientation: Formazan colour is commonly taken as a measure of viable cells.

The next series relates to obese mice. Further details: method as in PMID 27814523. The conditions noted are these: type 2 diabetes study; cited from earlier work.
The test system of a further series is galectin-1. Further details: method as in Delaine et al., Salameh et al., Peterson et al. The note with it: lower compared to galectin-3; ref Delaine et al., Salameh et al., Peterson et al.; cited from earlier work.
In series [4] the target is T1, galectin-3. Briefly: Inhibition of fluorescein-tagged galectin-3 binding to the cell surface of CHO cells (flow cytometry). The note with it: 0.5 µM fluorescein-tagged galectin-3, 4 °C, 1 hour. It counts as cell-based. Further details: made in house; host or cells: E. coli BL21 Star (DE3).

The structures appear in SMILES notation. Where “and” joins values, the source holds several entries; their conditions need not be identical. Identical values can stand only once. Like-named read-outs stand apart in the source and are kept apart here. Where a SMILES comes first, the peptide text is derived from it. The star is where a group is joined. βNA = c1ccc2cc(N*)ccc2c1 Bounds are passed on as bounds.

In the case of `OC[C@H]1O[C@H](Sc2ccc(Cl)c(Cl)c2)[C@H](O)[C@@H](n2cc(-c3cc(F)c(F)c(F)c3)nn2)[C@H]1O` [compound 2], in [1], the apparent permeability from apical to basolateral (Papp A→B) stood at 14.7 ×10⁻⁶ cm/s and the apparent permeability from basolateral to apical (Papp B→A) worked out at 16.2 ×10⁻⁶ cm/s.

With `NCC(=O)N[C@@H](Cc1ccccc1)C(=O)Nc1ccc2ccccc2c1` [GPN, glycyl-L-phenylalanine 2-naphthylamide, reference compound] (H-Gly-Phe-βNA), the “mean number of galectin-3 puncta/nucleus” value on galectin-3 [2] (JIMT-1 cells, 0.3 mM GPN for 13 minutes, n = 92) is reported as 4.81 ± 0.23.

With `CCCCNC(=O)c1cn(C2C(O)C(CO)OC(SC3OC(CO)C(O)C(n4cc(C(=O)NCCCC)nn4)C3O)C2O)nn1` (stereo not shown) [compound 3], the “cell viability (MTT)” value with MCF-7 cells, with JIMT-1 cells and in the series on HCC1937 cells was “no apparent change in cell viability” each time. Moreover, the Kd at galectin-3 [3] (as in Fig. 1b, restated in legend of Fig. S1, read-out: Kd value for galectin-3) is 35.8 nM; on galectin-3 [3] (galectin-3 CRD, FA assay, PBS pH 7.2, room temperature, read-out: Kd value for galectin-3), 36 nM and 35.8 nM; on galectin-3 [3] (pH 5, acetate buffer with NaCl, read-out: Kd value for galectin-3 at pH 5) it was 778 nM. The “fold lower affinity for galectin-3 compared to 1” value at galectin-3 [3] (ratio of Kd values) is above 10 fold. In addition, in the series on obese mice, the glucose tolerance entry is “improved glucose tolerance”. Further, the insulin resistance result in the series on obese mice is “decreased insulin resistance”. Also, the “inhibition of galectin-3 accumulation (extent)” value at galectin-3 [2] (15 minutes pre-treatment, high concentrations 50–100 µM) is “complete inhibition of galectin-3 accumulation could not be reached”; on galectin-3 [2] (24 hours pre-treatment, up to 10 µM), “poor inhibitor of galectin-3 accumulation”. In addition, the IC50 on galectin-3 [2] (JIMT-1 cells, 15 minutes pre-incubation, read-out: IC50, inhibition of GPN-induced galectin-3 accumulation) is around 10000 nM; on galectin-3 [4], 10000 nM. The compound further returned an apparent permeability from apical to basolateral (Papp A→B) in [1] below 0.3 ×10⁻⁶ cm/s. Also, the Papp B→A in [1] was below 0.07 ×10⁻⁶ cm/s. Moreover, in the series with galectin-1, the “affinity for galectin-1” value is on record as “high affinity”.

The record behind these values is PMC6379368, “Extracellular and intracellular small-molecule galectin-3 inhibitors” (Scientific Reports, 2019).
